Test results: patent US20080076740A1, “Antiviral compounds” (GILEAD SCIENCES, INC., priority 2005, published 2008)
Where two headings read alike, the source gives them in different places.

What was measured:
[1] = biological target: Strand Transfer (Human immunodeficiency virus type 1 group M subtype B, UniProt P04585); assay: Integrase strand transfer inhibition; type: biochemical, HIV
[2] = test system: HIV; assay: Anti-HIV activity in MT4 cells; type: cell-based; conditions: Human immunodeficiency virus 1
[3] = In vitro PBMC loading rate; type: in vitro ADME; conditions: human
Description: In one embodiment, the invention is provides compounds capable of accumulating in human PBMC (peripheral blood mononuclear cells). PBMC refer to blood cells having round lymphocytes and monocytes. Physiologically, PBMC are critical components of the mechanism against infection. PBMC may be isolated from heparinized whole blood of normal healthy donors or buffy coats, by standard density gradient centrifugation and harvested from the interface, washed (e.g. phosphate-buffered saline) and stored in freezing medium. PBMC may be cultured in multi-well plates. At various times of culture, supernatant may be either removed for assessment, or cells may be harvested and analyzed (Smith R. etal (2003) Blood 102(7):2532-2540). The compounds of this embodiment may further comprise a phosphonate or phosphonate prodrug. More typically, the phosphonate or phosphonate prodrug can have the structure A^3 as described herein.

[4] = Cytotoxicity in MT4 cells; conditions: human
[5] = Hepatocyte stability, dog; conditions: hepatocytes
[6] = Hepatocyte stability, human; conditions: hepatocytes
[7] = Phosphonate prodrugs in vivo summary (pharmacokinetics); conditions: species not given
[8] = in vitro; conditions: human
[9] = Caco-2 permeability; type: in vitro ADME
[10] = test system: HIV; assay: Antiviral activity in MT-2 cells; type: cell-based
[11] = Pharmacokinetics in rat; type: in vivo; conditions: for clearance: in vivo, read-out: Cl Rat (converted)
[12] = Pharmacokinetics in dog; type: in vivo; conditions: for clearance: in vivo, read-out: Cl Dog (converted)
[13] = human, Caco-2 studies, read-out: Papp

Structure (SMILES) | In vitro PBMC Loading Rate [3] | half-life [5] | half-life [6] | (head line blank) [7] | F [7] | Vdβ [7] | further results
CCOC(=O)[C@H](C)OP(=O)(CCN1CCN(C(=O)Oc2c3c(c(O)c4ncccc24)C(=O)N(Cc2ccc(F)cc2)C3)CC1)Oc1ccccc1 (some centres unmarked) [Compound 2005] | 5291 nM/h | 1.07 h | 1.65 h | 60 mL/min/kg | 3% | 10.8 L/kg | IC50 [1]: < 1200 nM; EC50 [2]: < 20 nM; CC50 [4]: < 5000 nM
COP(=O)(CCN1CCN(C(=O)Oc2c3c(c(O)c4ncccc24)C(=O)N(Cc2ccc(F)cc2)C3)CC1)OC [Compound 2004] |  |  |  |  |  |  | IC50 [1]: < 600 nM; EC50 [2]: < 20 nM; CC50 [4]: < 5000 nM
CCOP(=O)(CNC(=O)CCSC1c2c(c(O)c3ncccc3c2OC)C(=O)N1Cc1ccc(F)cc1)OCC (centres unmarked) [Compound 2021] |  |  |  |  |  |  | IC50 ([1]; read-out: IC50 Strand Transfer): < 1200 nM; EC50 [2]: < 500 nM; CC50 [8]: < 50000 nM
CCOC(=O)[C@H](C)NP(=O)(CCN(C)C(=O)c1c2c(c(O)c3ncccc13)C(=O)N(Cc1ccc(F)cc1)C2)OCC(F)(F)F (some centres unmarked) [Compound 2009] |  | 1.22 h |  | 43.3 mL/min/kg | 7% | 3 L/kg | Papp ([9]; human, Caco-2, read-out: Papp): 1 to 4 ×10⁻⁶ cm/s
CCOC(=O)[C@H](C)NP(=O)(CCNC(=O)c1c2c(c(O)c3ncccc13)C(=O)N(Cc1ccc(F)cc1)C2)N[C@@H](C)C(=O)OCC [Compound 2007] |  | 3.23 h | 2.65 h | 58.3 mL/min/kg |  | 4 L/kg | Papp ([9]; Caco-2): BQL
CCOC(=O)[C@H](C)OP(=O)(CCNC(=O)c1c2c(c(O)c3ncccc13)C(=O)N(Cc1ccc(F)cc1)C2)Oc1ccccc1 (some centres unmarked) [Compound 2014] |  |  |  | 16.7 mL/min/kg | 0.04% | 1.1 L/kg | 
CCOC(=O)[C@H](C)NP(=O)(CCN(C)C(=O)c1c2c(c(O)c3ncccc13)C(=O)N(Cc1ccc(F)cc1)C2)OCC(F)(F)F (some centres unmarked) [Compound 2018] |  |  |  |  |  |  | EC50 [10]: 0.1 nM
CCOC(=O)C(C)NP(=O)(CCN(C)C(=O)c1c2c(c(O)c3ncccc13)C(=O)N(Cc1ccc(F)cc1)C2)Oc1ccccc1 (centres unmarked) [Compound 2008] | 19551 nM/h | 0.733 h | 1.95 h | 15 mL/min/kg | 0.5% | 1.8 L/kg | Papp ([9]; human, Caco-2, read-out: Papp): 0.1 ×10⁻⁶ cm/s
CCOC(=O)[C@H](C)NP(=O)(CCCN(C)C(=O)c1c2c(c(O)c3ncccc13)C(=O)N(Cc1ccc(F)cc1)C2)Oc1ccccc1 (some centres unmarked) [Compound 2012] | 4831 nM/h | 0.767 h | 2.57 h | 12 mL/min/kg | 0.2% | 0.7 L/kh | Papp ([9]; Caco-2): BQL
O=C(NCc1ccccn1)c1c2c(c(O)c3ncccc13)C(=O)N(Cc1ccc(F)cc1)C2 [Compound 2001] |  |  |  |  |  |  | Papp [9, 13]: 5 ×10⁻⁶ cm/s; F Rat [11]: 2%; Vdb Rat [11]: 8.2 L/kg; clearance [11]: 183 mL/min/kg; F Dog [12]: 28%; Vdb Dog [12]: 0.8 L/kg; clearance [12]: 1.17 mL/min/kg
O=C(NCc1ccc(F)cc1)c1nc(N2CCCCS2(=O)=O)c2cccnc2c1O [Compound L-870810, reference compound] |  |  |  |  |  |  | Papp [9, 13]: 40 ×10⁻⁶ cm/s; F Rat [11]: 42%; Vdb Rat [11]: 0.72 L/kg; clearance [11]: 1.5 mL/min/kg; F Dog [12]: 50%; Vdb Dog [12]: 0.5 L/kg; clearance [12]: 1.17 mL/min/kg
CCOP(=O)(CN1CCN(C(=O)Oc2c3c(c(O)c4ncccc24)C(=O)N(Cc2ccc(F)cc2)C3)CC1)OCC [Compound 2003] |  |  |  |  |  |  | IC50 [1]: < 600 nM; EC50 [2]: < 20 nM; CC50 [4]: < 5000 nM
CCOC(=O)[C@H](C)NP(=O)(CCCNC(=O)c1c2c(c(O)c3ncccc13)C(=O)N(Cc1ccc(F)cc1)C2)Oc1ccccc1 (some centres unmarked) [Compound 2016] |  |  |  | 6.7 mL/min/kg |  | 0.7 L/kh | 
CCOP(=O)(COc1c2c(c(O)c3ncccc13)C(=O)N(Cc1ccc(F)cc1)C2)OCC [Compound 2002] |  |  |  |  |  |  | IC50 ([1]; read-out: IC50 Strand Transfer): < 600 nM; EC50 [2]: < 20 nM; CC50 [8]: < 5000 nM
CCOC(=O)[C@H](C)NP(=O)(CCN1CCN(C(=O)c2c3c(c(O)c4ncccc24)C(=O)N(Cc2ccc(F)cc2)C3)CC1)Oc1ccccc1 (some centres unmarked) [Compound 2015] |  |  |  | 13 mL/min/kg |  | 0.8 L/kh | 
CCOC(=O)[C@H](C)NP(=O)(CO[C@H](C)CNC(=O)c1c2c(c(O)c3ncccc13)C(=O)N(Cc1ccc(F)cc1)C2)Oc1ccccc1 (some centres unmarked) [Compound 2013] | 5774 nM/h | 0.883 h | 1.33 h | 15 mL/min/kg |  | 4 L/kg | Papp ([9]; Caco-2): BQL
CCOC(=O)[C@H](C)NP(=O)(CCNC(=O)c1c2c(c(O)c3ncccc13)C(=O)N(Cc1ccc(F)cc1)C2)Oc1ccccc1 (some centres unmarked) [Compound 2006] | 7830 nM/h | 1.73 h | 1.63 h | 15 mL/min/kg | BLQ | 0.7 L/kh | 
CCOC(=O)[C@H](C)OP(=O)(CCN1CCN(C(=O)c2c3c(c(O)c4ncccc24)C(=O)N(Cc2ccc(F)cc2)C3)CC1)Oc1ccccc1 (some centres unmarked) [Compound 2011] | 4810 nM/h | 0.733 h | 1.4 h | 76.7 mL/min/kg | 0.3% | 9.1 L/kg | 
CCOC(=O)[C@H](C)NP(=O)(CCN(C)C(=O)c1c2c(c(O)c3ncccc13)C(=O)N(Cc1ccc(F)cc1)C2)OCC(F)(F)F (some centres unmarked) [Compound 2017] |  |  |  |  |  |  | EC50 [10]: 1 nM
